# Laboratory results published in PubChem BioAssay AID1919002 (Molecular Pharmacology Branch, DTP, NCI, 2023).
# “And” between values parts separate entries of the source, which are not always exact repeats. Identical values can stand only once.
# Tested on: 743489-274-T-PDC complex spheroid growth
# Experiment: Anticancer human tumor 743489-274-T-PDC patient-derived renal cell carcinoma cell line growth inhibition [AhR]
# Conditions: for viability, T/C: stronger effect = lower value
# In short: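 Agents were dosed in half-log steps down from roughly clinical Cmax, or from 10 microM where Cmax was unknown, alone and with AhR antagonists. Read-out: percent test/control growth of tumor spheroids containing HUVEC and MSC stromal cells.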
# 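Note: spheroids exposed to agents for 7 days before readout.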
# 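Throughout, for viability, T/C: 100% = DMSO vehicle control wells.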
smiles,measurement,setting,value
CCc1c2c(nc3ccc(O)cc13)-c1cc3c(c(=O)n1C2)COC(=O)[C@]3(O)CC + CC(CO)NC(=O)c1cc(-c2ccc(Cl)cc2)nn(-c2cnn(C)c2)c1=O,IC50,"curve of first compound, second compound 0.1 µM",> 300 nM
same,IC50,"curve of first compound, second compound 0.316 µM",> 300 nM
same,IC50,"curve of first compound, second compound 1 µM",> 300 nM
same,IC50,"curve of first compound, second compound 3.16 µM",> 300 nM
same,IC50,"curve of first compound, second compound 10 µM",> 300 nM
same,"viability, T/C","second compound 0.1 µM, first compound 0.000949 µM",107%
same,"viability, T/C","second compound 0.1 µM, first compound 0.003 µM",105%
same,"viability, T/C","second compound 0.1 µM, first compound 0.00949 µM",87%
same,"viability, T/C","second compound 0.1 µM, first compound 0.03 µM",88.1%
same,"viability, T/C","second compound 0.1 µM, first compound 0.0949 µM",70.5%
same,"viability, T/C","second compound 0.1 µM, first compound 0.3 µM",64.5%
same,"viability, T/C","second compound 0.316 µM, first compound 0.000949 µM",87.7%
same,"viability, T/C","second compound 0.316 µM, first compound 0.003 µM",94%
same,"viability, T/C","second compound 0.316 µM, first compound 0.00949 µM",103%
same,"viability, T/C","second compound 0.316 µM, first compound 0.03 µM",78.7%
same,"viability, T/C","second compound 0.316 µM, first compound 0.0949 µM",71.5%
same,"viability, T/C","second compound 0.316 µM, first compound 0.3 µM",55.8%
same,"viability, T/C","second compound 1 µM, first compound 0.000949 µM",98.4%
same,"viability, T/C","second compound 1 µM, first compound 0.003 µM",88.7%
same,"viability, T/C","second compound 1 µM, first compound 0.00949 µM",91.6%
same,"viability, T/C","second compound 1 µM, first compound 0.03 µM",88.7%
same,"viability, T/C","second compound 1 µM, first compound 0.0949 µM",73.1%
same,"viability, T/C","second compound 1 µM, first compound 0.3 µM",68.4%
same,"viability, T/C","second compound 3.16 µM, first compound 0.000949 µM",94.2%
same,"viability, T/C","second compound 3.16 µM, first compound 0.003 µM",100%
same,"viability, T/C","second compound 3.16 µM, first compound 0.00949 µM",97.9%
same,"viability, T/C","second compound 3.16 µM, first compound 0.03 µM",84.3%
same,"viability, T/C","second compound 3.16 µM, first compound 0.0949 µM",76.8%
same,"viability, T/C","second compound 3.16 µM, first compound 0.3 µM",59.3%
same,"viability, T/C","second compound 10 µM, first compound 0.000949 µM",87.7%
same,"viability, T/C","second compound 10 µM, first compound 0.003 µM",93.1%
same,"viability, T/C","second compound 10 µM, first compound 0.00949 µM",82.7%
same,"viability, T/C","second compound 10 µM, first compound 0.03 µM",97.7%
same,"viability, T/C","second compound 10 µM, first compound 0.0949 µM",79.7%
same,"viability, T/C","second compound 10 µM, first compound 0.3 µM",65.2%
CCc1c2c(nc3ccc(O)cc13)-c1cc3c(c(=O)n1C2)COC(=O)[C@]3(O)CC,"viability, T/C",compound 0.000949 µM,105% and 85% and 104%
same,"viability, T/C",compound 0.003 µM,105% and 102% and 103%
same,"viability, T/C",compound 0.00949 µM,102% and 85.4% and 107%
same,"viability, T/C",compound 0.03 µM,83% and 70.5% and 95.8%
same,"viability, T/C",compound 0.0949 µM,77.1% and 65.4% and 83.9%
same,"viability, T/C",compound 0.3 µM,68.5% and 50.5% and 59.9%
same,IC50,curve of compound,> 300 nM
Nc1ccccc1NC(=O)c1ccc(CNC(=O)OCc2cccnc2)cc1,"viability, T/C",compound 0.0316 µM,95% and 98.2% (2×)
same,"viability, T/C",compound 0.1 µM,91.3% and 103% (2×)
same,"viability, T/C",compound 0.316 µM,82.6% and 96.2% and 85.1%
same,"viability, T/C",compound 1 µM,75.5% and 87.3% and 72.5%
same,"viability, T/C",compound 3.16 µM,57.6% and 59% and 59.5%
same,"viability, T/C",compound 10 µM,45.6% and 37.9% and 39.1%
same,IC50,curve of compound,6730 nM and 5170 nM and 5090 nM
